Values quoted from earlier work in patent US11692003B2, “Mithramycin derivatives having increased selectivity and anti-cancer activity” (University of Kentucky Research Foundation, priority 2018, dated 2023).

System: several cancer cell lines

| SMILES | activity against several cancer cell lines compared to the parent MTM |
| --- | --- |
| CO[C@H](C(=O)C(C)=O)[C@@H]1Cc2cc3cc(OC4C[C@@H](OC5C[C@@H](O)[C@H](O)C(C)O5)[C@H](O)C(C)O4)c(C)c(O)c3c(O)c2C(=O)[C@H]1OC1C[C@@H](OC2C[C@@H](OC3C[C@](C)(O)[C@H](O)C(C)O3)[C@@H](O)C(C)O2)[C@H](O)C(C)O1 (some centres unmarked) [MTM SDK, mithramycin SDK] | increased activity |
| CO[C@H](C(O)C(C)=O)[C@@H]1Cc2cc3cc(OC4C[C@@H](OC5C[C@@H](O)[C@H](O)C(C)O5)[C@H](O)C(C)O4)c(C)c(O)c3c(O)c2C(=O)[C@H]1OC1C[C@@H](OC2C[C@@H](OC3C[C@](C)(O)[C@H](O)C(C)O3)[C@@H](O)C(C)O2)[C@H](O)C(C)O1 (some centres unmarked) [MTM SK, Mithramycin SK] | increased activity |
